Measured values taken from US20260097049A1, “C[…] AND METHODS OF USE FOR TREATMENT AND PREVENTION OF CANCER” (BlackStone Therapeutics, LLC, priority 2022, published 2026).

Legend:
PANC-1 = test: CellTiterGlo cell viability, PANC-1 cells; type: cell-based; conditions: Homo sapiens, 72 h
Protocol: (§1) The IC50 values for (R)-H4CBD, (S)-H4CBD, H4CBDV racemic mixture, and bortezomib were determined. Compound treatment of cells started one day after seeding with a final DMSO concentration of 0.1% and was performed by nanodrop-dispensing using a Tecan Dispenser. 0.1% DMSO (solvent) and Staurosporine (1,0E-05M) served as high control (100% viability) and low control (0% viability), respectively. For the assays, cells were seeded in white cell culture-treated flat and clear bottom multiwell plates and incubated at 37° C. overnight before compounds were added. After incubation for 72 h at 37° C. at 5% or 10% CO2 dependent on the medium, cell plates were equilibrated to room temperature for one hour, CellTiterGlo reagent (Promega) was added and luminescence was measured approximately an hour later using a luminometer.
(§2) Raw data were converted into percent cell viability relative to the high and low control, which were set to 100% and 0%, respectively. IC50 calculation was performed using GraphPad Prism software with a variable slope sigmoidal response fitting model using 0% viability as bottom constraint and 100% viability as top constraint. IC50 results in PANC-1, MIA-PaCa2, and AsPC-1 cells for (R)-H4CBD, (S)-H4CBD, H4CBDV racemic mixture, and bortezomib are shown in FIGS. 10-12 and Table 2

[1] = tested on: PANC-1, HPAF-II, AsPC-1, and MIA-PaCa2; test: Cell killing against various cancer cell lines; type: cell-based; conditions: all cancer cells tested
Protocol: Various compounds, including (R)-H4CBD and (S)-H4CBD, and H4CBDV racemic mixture, were tested for cell killing against various cancer cell lines, including PANC-1, HPAF-II, AsPC-1, and MIA-PaCa2.

MiaPaca cells xenograft = test: Miapaca cell xenograft study; type: in vivo, SCID mice
Protocol: Animal housing and environment: Female SCID mice will be housed in individually ventilated cages in a controlled environment (temperature 22±2° C., humidity 30-70%, and 12 h light/12 h dark cycle). Acclimatization of animals: Mice will be acclimated for 2-4 days. For the study, the required number of SCID mice will be allocated and housed separately in the experimental area. Food and water for animals: The mice will have access to commercially available sterile feed pellets and sterile potable water ad libitum. Identification of animals: 4 mice will be housed per individually ventilated cage. Each animal in the cage will be identified by ear punch. These cages will be numbered thus making the animal identification easy. Ethical approvals: All animal experiments will be carried out in accordance with the guidelines of the guide for animal welfare and with the approval of the IACUC WSU. Population per group: 9 mice per group (6 for efficacy and 3 for residual tumor analysis).
Miapaca cells were xenograft into the mice. 7 days after transplantation, the mice were untreated (administered a vehicle control), administered CCL-104 intravenously (15.4 mg/kg) or orally (31 mg/kg), or administered CCL-106, intravenously (20 mg/kg) or orally (31 mg/kg). At necropsy, tumors were excised for IHC, immunoblotting and RNA isolation for suppression proliferation related signaling molecules.

MiaPaCA-2 = test: CellTiterGlo cell viability, MiaPaCA-2 cells; type: cell-based; conditions: Homo sapiens, MIA PaCa-2, 72 h
Protocol: as §1, §2

## CCCc1cc(O)c(C2CC(C)CCC2C(C)C)c(O)c1 (racemic) [CCL-106, hexahydrocannabidivarin]
PANC-1
  IC50: 789 nM
[1]
  cytotoxicity against cancer cells: shows cytotoxicity against all cancer cells tested
MiaPaca cells xenograft; IV 20 mg/kg
  reduction of final tumor weight (dot graph): 27.0%
  reduction of mean of the final tumor weight (bar graph): 24.2%
MiaPaca cells xenograft; PO 31 mg/kg
  reduction of final tumor weight (dot graph): 50.8%
  reduction of mean of the final tumor weight (bar graph): 50.79%
MiaPaca cells xenograft; treated intravenously or orally, FIGS. 54-55
  tumor size compared to the untreated control: smaller tumors compared to the untreated control
MiaPaCA-2
  IC50: 530 nM
